Measured values: patent US9102638B2, “Amidobenzothiazoles and process for the preparation thereof” (COUNCIL OF SCIENTIFIC & INDUSTRIAL RESEARCH, priority 2011, dated 2015)

Assays:
Type in all cases: cell-based
K-562 = experiment: In vitro cytotoxicity, NCI screen: K-562 (Leukemia); settings: Homo sapiens, K562; read-out: GI50 values (μM conc.)
Experimental: (§1) The in vitro anticancer activity studies for these amidobenzothiazoles were carried out at the National Cancer Institute, Maryland, USA.
(§2) The amidobenzothiazoles have been tested against sixty human tumor cell lines derived from nine cancer types (leukemia cancer cell line, non-small cell lung cancer cell line, colon cancer cell line, CNS cancer cell line, melanoma cancer cell line, ovarian cancer cell line, renal cancer cell line, prostate cancer cell line and breast cancer cell lines). For these compounds results are expressed in GI50 values of that particular cancer cell at micro molar (μM) concentration as per NCI protocol.

MOLT-4 = experiment: In vitro cytotoxicity, NCI screen: MOLT-4 (Leukemia); settings: Homo sapiens; MOLT-4, Leukemia panel, NCI protocol; read-out: GI50 values (μM conc.)
Experimental: as §1, §2

RPMI-8226 = experiment: In vitro cytotoxicity, NCI screen: RPMI-8226 (Leukemia); settings: Homo sapiens; RPMI-8226, Leukemia panel, NCI protocol; read-out: GI50 values (μM conc.)
Experimental: as §1, §2

EKVX = experiment: In vitro cytotoxicity, NCI screen: EKVX (Non-small cell lung); settings: Homo sapiens, Non-small cell lung panel, NCI protocol, read-out: GI50 values (μM conc.)
Experimental: as §1, §2

HOP-92 = experiment: In vitro cytotoxicity, NCI screen: HOP-92 (Non-small cell lung); settings: Homo sapiens; HOP-92, Non-small cell lung panel, NCI protocol; read-out: GI50 values (μM conc.)
Experimental: as §1, §2

NCI-H226 = experiment: In vitro cytotoxicity, NCI screen: NCI-H226 (Non-small cell lung); settings: Homo sapiens; NCI-H226, Non-small cell lung panel, NCI protocol; read-out: GI50 values (μM conc.)
Experimental: as §1, §2

NCI-H460 = experiment: In vitro cytotoxicity, NCI screen: NCI-H460 (Non-small cell lung); settings: Homo sapiens; NCI-H460, Non-small cell lung panel, NCI protocol; read-out: GI50 values (μM conc.)
Experimental: as §1, §2

HT29 = experiment: In vitro cytotoxicity, NCI screen: HT29 (Colon); settings: Homo sapiens, HT-29; HT29, Colon panel, NCI protocol; read-out: GI50 values (μM conc.)
Experimental: as §1, §2

SF-268 = experiment: In vitro cytotoxicity, NCI screen: SF-268 (CNS); settings: Homo sapiens, read-out: GI50 values (μM conc.)
Experimental: as §1, §2

SNB-75 = experiment: In vitro cytotoxicity, NCI screen: SNB-75 (CNS); settings: Homo sapiens; SNB-75, CNS panel, NCI protocol; read-out: GI50 values (μM conc.)
Experimental: as §1, §2

LOX IMVI = experiment: In vitro cytotoxicity, NCI screen: LOX IMVI (Melanoma); settings: Homo sapiens, Melanoma panel, NCI protocol, read-out: GI50 values (μM conc.)
Experimental: as §1, §2

MALME-3M = experiment: In vitro cytotoxicity, NCI screen: MALME-3M (Melanoma); settings: Homo sapiens, Melanoma panel, NCI protocol, read-out: GI50 values (μM conc.)
Experimental: as §1, §2

MDA-MB-435 = experiment: In vitro cytotoxicity, NCI screen: MDA-MB-435 (Melanoma); settings: Homo sapiens; MDA-MB-435, Melanoma panel, NCI protocol; read-out: GI50 values (μM conc.)
Experimental: as §1, §2

SK-MEL-2 = experiment: In vitro cytotoxicity, NCI screen: SK-MEL-2 (Melanoma); settings: Homo sapiens; SK-MEL-2, Melanoma panel, NCI protocol; read-out: GI50 values (μM conc.)
Experimental: as §1, §2

UACC-62 = experiment: In vitro cytotoxicity, NCI screen: UACC-62 (Melanoma); settings: Homo sapiens; UACC-62, Melanoma panel, NCI protocol; read-out: GI50 values (μM conc.)
Experimental: as §1, §2

NCI/ADR-RES = experiment: In vitro cytotoxicity, NCI screen: NCI/ADR-RES (Ovarian); settings: Homo sapiens, Ovarian panel, NCI protocol, read-out: GI50 values (μM conc.)
Experimental: as §1, §2

SK-OV-3 = experiment: In vitro cytotoxicity, NCI screen: SK-OV-3 (Ovarian); settings: Homo sapiens; SK-OV-3, Ovarian panel, NCI protocol; read-out: GI50 values (μM conc.)
Experimental: as §1, §2

786-0 = experiment: In vitro cytotoxicity, NCI screen: 786-0 (Renal); settings: Homo sapiens; 786-0, Renal panel, NCI protocol; read-out: GI50 values (μM conc.)
Experimental: as §1, §2

CAKI-1 = experiment: In vitro cytotoxicity, NCI screen: CAKI-1 (Renal); settings: Homo sapiens; CAKI-1, Renal panel, NCI protocol; read-out: GI50 values (μM conc.)
Experimental: as §1, §2

RXF 393 = experiment: In vitro cytotoxicity, NCI screen: RXF 393 (Renal); settings: Homo sapiens; RXF 393, Renal panel, NCI protocol; read-out: GI50 values (μM conc.)
Experimental: as §1, §2

UO-31 = experiment: In vitro cytotoxicity, NCI screen: UO-31 (Renal); settings: Homo sapiens; UO-31, Renal panel, NCI protocol; read-out: GI50 values (μM conc.)
Experimental: as §1, §2

DU-145 = experiment: In vitro cytotoxicity, NCI screen: DU-145 (Prostate); settings: Homo sapiens, read-out: GI50 values (μM conc.)
Experimental: as §1, §2

MCF7 = experiment: In vitro cytotoxicity, NCI screen: MCF7 (Breast); settings: Homo sapiens; MCF7, Breast panel, NCI protocol; read-out: GI50 values (μM conc.)
Experimental: as §1, §2

BT-549 = experiment: In vitro cytotoxicity, NCI screen: BT-549 (Breast); settings: Homo sapiens, read-out: GI50 values (μM conc.)
Experimental: as §1, §2

[1] = test system: leukemia cancer cell lines; experiment: In vitro activity against leukemia cancer cell lines (panel range); settings: Homo sapiens, read-out: GI50 values, range over the listed compounds and the panel
Experimental: as §1, §2

CNS cancer cell lines = experiment: In vitro activity against CNS cancer cell lines (panel range); settings: Homo sapiens, read-out: GI50 values, range over the listed compounds and the panel
Experimental: as §1, §2

[2] = test system: prostate cancer cell lines; experiment: In vitro activity against prostate cancer cell lines (panel range); settings: Homo sapiens, read-out: GI50 values, range over the listed compounds and the panel
Experimental: as §1, §2

HOP-62 = experiment: In vitro cytotoxicity, NCI screen: HOP-62 (Non-small cell lung); settings: Homo sapiens; HOP-62, Non-small cell lung panel, NCI protocol; read-out: GI50 values (μM conc.)
Experimental: as §1, §2

SW-620 = experiment: In vitro cytotoxicity, NCI screen: SW-620 (Colon); settings: Homo sapiens; SW-620, Colon panel, NCI protocol; read-out: GI50 values (μM conc.)
Experimental: as §1, §2

HS 578T = experiment: In vitro cytotoxicity, NCI screen: HS 578T (Breast); settings: Homo sapiens, read-out: GI50 values (μM conc.)
Experimental: as §1, §2

SMILES | GI50 (RPMI-8226) [µM] | GI50 (EKVX) [µM] | GI50 (HOP-92) [µM] | GI50 (NCI-H226) [µM] | GI50 (SF-268) [µM] | GI50 (SNB-75) [µM] | GI50 (LOX IMVI) [µM] | GI50 (MDA-MB-435) [µM] | GI50 (NCI/ADR-RES) [µM] | GI50 (SK-OV-3) [µM] | GI50 (786-0) [µM] | GI50 (CAKI-1) [µM] | GI50 (RXF 393) [µM] | GI50 (UO-31) [µM] | GI50 (DU-145) [µM] | GI50 (MCF7) [µM] | GI50 (BT-549) [µM] | GI50 [1] [µM] | GI50 (CNS cancer cell lines) [µM] | GI50 [2] [µM] | also measured
COc1ccc(/C=C\c2cc(OC)c(OC)c(OC)c2)cc1OCC(=O)Nc1nc2ccccc2s1 [Compound 8a, N1-(1,3-benzothiazol-2-yl)-2-{2-methoxy-5-[(Z)-2-(3,4,5-trimethoxyphenyl)-1-ethenyl]phenoxy}acetamide] | 0.15 | 0.038 | 0.039 | 0.27 | 0.18 | 0.046 | 0.067 | 0.019 | 0.033 | 0.34 | 7.3 | 0.41 | 0.05 | 0.58 | 0.1 | 0.051 | 0.41 | 0.037 to 29.9 | 0.045 to 18.8 | 0.18 to 22.9 | GI50 (K-562): 0.042 µM; GI50 (MOLT-4): 0.34 µM; GI50 (NCI-H460): 0.052 µM; GI50 (HT29): 3.16 µM; GI50 (MALME-3M): 1.99 µM; GI50 (SK-MEL-2): 0.18 µM; GI50 (UACC-62): 0.063 µM
COc1ccc(/C=C\c2cc(OC)c(OC)c(OC)c2)cc1OCC(=O)Nc1nc2ccc(F)cc2s1 [Compound 8e, N1-(6-fluoro-1,3-benzothiazol-2-yl)-2-{2-methoxy-5-[(Z)-2-(3,4,5-trimethoxyphenyl)-1-ethenyl]phenoxy}acetamide] | 6.36 | 5.72 | 5.73 | 5.6 | 7.23 | 4.39 | 3.23 | 0.33 | 2.55 | 8 | 7.12 | 2.78 | 6.29 | 2.56 | 8.97 | 2.3 | 16.7 | 0.037 to 29.9 | 0.045 to 18.8 | 0.18 to 22.9 | GI50 (K-562): 3.62 µM; GI50 (MOLT-4): 3.07 µM; GI50 (HOP-62): 5.7 µM; GI50 (NCI-H460): 4.36 µM; GI50 (HT29): 9.63 µM; GI50 (SW-620): 65 µM; GI50 (MALME-3M): 5.22 µM; GI50 (SK-MEL-2): 8.46 µM; GI50 (UACC-62): 4.05 µM; GI50 (HS 578T): > 100 µM
COc1ccc(/C=C\c2cc(OC)c(OC)c(OC)c2)cc1OCC(=O)Nc1nc2ccc(OC(F)(F)F)cc2s1 [Compound 8j, N1-(6-(trifluoromethoxy)-1,3-benzothiazol-2-yl)-2-{2-methoxy-5-[(Z)-2-(3,4,5-trimethoxyphenyl)-1-ethenyl]phenoxy}acetamide] | 5.83 | 7.89 | 2.74 | 4.3 | 6.01 | 1.56 | 4.77 | 1.93 | 2.7 | 8.42 | 54.3 | 4.6 | 2.65 | 4.37 | 4.11 | 2.89 | 10.5 | 0.037 to 29.9 | 0.045 to 18.8 | 0.18 to 22.9 | GI50 (K-562): 3.43 µM; GI50 (MOLT-4): 4.21 µM; GI50 (HOP-62): 7.09 µM; GI50 (NCI-H460): 4.11 µM; GI50 (HT29): > 100 µM; GI50 (SW-620): 5.65 µM; GI50 (SK-MEL-2): 3.29 µM; GI50 (UACC-62): 5.11 µM; GI50 (HS 578T): 4.33 µM
COc1ccc(C2CC(c3cc(OC)c(OC)c(OC)c3)=NN2C(C)=O)cc1OCC(=O)Nc1nc2ccc(C(F)(F)F)cc2s1 (centres unmarked) [Compound 10i, N1-(6-(trifluoromethyl)-1,3-benzothiazol-2-yl)-2-{5-[1-acetyl-3-(3,4,5-trimethoxyphenyl)-4,5-dihydro-1H-5-pyrazolyl]-2-methoxyphenoxy}acetamide] | 2.21 | 4.1 | 1.7 | 2.22 | 3.84 | 1.55 | 3.36 | 3.08 | 3.13 | 5.75 | 3.58 | 2.17 | 2.09 | 1.93 | 1.82 | 4.02 | 3.55 | 0.037 to 29.9 | 0.045 to 18.8 | 0.18 to 22.9 | GI50 (HOP-62): 2.2 µM; GI50 (SW-620): > 100 µM; GI50 (MALME-3M): 6.44 µM; GI50 (HS 578T): 2.48 µM
